Where “and” joins values, the source holds several entries; their conditions need not be identical. Equal entries are not always repeated. Toxic doses and inconclusive results are not listed. No stated cut-off is given here; in the data, active means T/C of 150% or more; inactive means T/C below 125%.
Tested on: L1210 leukemia ip in BDF1 mice, survival T/C
Assay: NCI In Vivo Anticancer Drug Screen. Data for tumor model L1210 Leukemia (intraperitoneal) in B6D2F1 (BDF1) mice
Details: endpoint: mean survival time, higher = longer survival
In short: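 Each compound was tested against a transplantable tumor grown in mice. The endpoint was survival, with treated animals benchmarked against vehicle controls as a simple ratio.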

[1] = dose: 25.0 mg/kg/injection, schedule: Q01DX009 (ip), vehicle: saline with Tween-80
[2] = dose: 25.0 mg/kg/injection, schedule: Q01DX009 (ip), vehicle: saline
[3] = dose: 25.0 mg/kg/injection, schedule: Q04DX002 (ip), vehicle: saline with Tween-80
[4] = dose: 50.0 mg/kg/injection, schedule: Q01DX009 (ip), vehicle: saline with Tween-80
[5] = dose: 100.0 mg/kg/injection, schedule: Q01DX009 (ip), vehicle: saline with Tween-80
[6] = dose: 100.0 mg/kg/injection, schedule: Q04DX002 (ip), vehicle: saline with Tween-80
[7] = dose: 100.0 mg/kg/injection, schedule: Q01DX009 (ip), vehicle: Klucel (hydroxypropylcellulose) (HPC)
[8] = dose: 100.0 mg/kg/injection, schedule: Q01DX001 (ip), vehicle: saline
[9] = dose: 200.0 mg/kg/injection, schedule: Q01DX001 (ip), vehicle: saline
[10] = dose: 400.0 mg/kg/injection, schedule: Q01DX001 (ip), vehicle: saline
[11] = dose: 50.0 mg/kg/injection, schedule: Q01DX009 (ip), vehicle: saline
[12] = dose: 100.0 mg/kg/injection, schedule: Q01DX009 (ip), vehicle: saline
[13] = dose: 100.0 mg/kg/injection, schedule: Q04DX003 (ip), vehicle: Klucel (hydroxypropylcellulose) (HPC)
[14] = dose: 100.0 mg/kg/injection, schedule: Q04DX003 (ip), vehicle: saline
[15] = dose: 200.0 mg/kg/injection, schedule: Q01DX009 (ip), vehicle: Klucel (hydroxypropylcellulose) (HPC)
[16] = dose: 200.0 mg/kg/injection, schedule: Q04DX003 (ip), vehicle: Klucel (hydroxypropylcellulose) (HPC)
[17] = dose: 200.0 mg/kg/injection, schedule: Q04DX003 (ip), vehicle: saline
[18] = dose: 400.0 mg/kg/injection, schedule: Q01DX009 (ip), vehicle: Klucel (hydroxypropylcellulose) (HPC)
[19] = dose: 400.0 mg/kg/injection, schedule: Q04DX003 (ip), vehicle: Klucel (hydroxypropylcellulose) (HPC)
[20] = dose: 400.0 mg/kg/injection, schedule: Q04DX003 (ip), vehicle: saline
[21] = dose: 800.0 mg/kg/injection, schedule: Q04DX003 (ip), vehicle: saline
[22] = dose: 100.0 mg/kg/injection, schedule: Q04DX003 (ip), vehicle: saline with Tween-80

Measured: T/C

CCC(CN(C)C)C(=O)c1ccccc1 (stereo not given)
inactive: dose: 6.0 mg/kg/injection, schedule: Q01DX009 (ip), vehicle: saline 93 % of control | dose: 12.0 mg/kg/injection, schedule: Q01DX009 (ip), vehicle: saline 91 % of control | [1] 93 % of control | [2] 88 % of control | [3] 100 % of control | [4] 96 % of control | dose: 50.0 mg/kg/injection, schedule: Q04DX002 (ip), vehicle: saline with Tween-80 96 % of control | [5] 93 % of control | [6] 104 % of control

O=C(c1ccccc1)C(Cl)c1ccccc1 (stereo not given)
inactive: dose: 25.0 mg/kg/injection, schedule: Q01DX009 (ip), vehicle: Klucel (hydroxypropylcellulose) (HPC) 105 % of control | dose: 50.0 mg/kg/injection, schedule: Q01DX009 (ip), vehicle: Klucel (hydroxypropylcellulose) (HPC) 111 % of control | [7] 107 % of control

O=C(O)/C(=C\c1ccccc1Cl)c1ccccc1
inactive: dose: 100.0 mg/kg/injection, schedule: Q04DX002 (ip), vehicle: Klucel (hydroxypropylcellulose) (HPC) 94 % of control | dose: 200.0 mg/kg/injection, schedule: Q04DX002 (ip), vehicle: Klucel (hydroxypropylcellulose) (HPC) 90 % of control

CCCC[N+](C)(C)CC[N+](C)(C)CCCC
inactive: [8] 102 % of control | [9] 105 % of control | [10] 102 % of control

OCCCC(O)CO (stereo not given)
inactive: dose: 222.0 mg/kg/injection, schedule: Q01DX Z (ip), vehicle: saline 98 % of control | dose: 333.0 mg/kg/injection, schedule: Q01DX Z (ip), vehicle: saline 111 % of control | dose: 500.0 mg/kg/injection, schedule: Q01DX Z (ip), vehicle: saline 102 % of control

Cc1c(C)c(C(=O)O)c(C)c(C)c1C(=O)O
inactive: [5] 96 % of control | dose: 200.0 mg/kg/injection, schedule: Q01DX009 (ip), vehicle: saline with Tween-80 97 % of control | dose: 400.0 mg/kg/injection, schedule: Q01DX009 (ip), vehicle: saline with Tween-80 102 % of control

O=S(=O)(OCC1C2CCC1CC2)c1ccccc1 (stereo not given)
inactive: dose: 100.0 mg/kg/injection, schedule: Q01DX009 (ip), vehicle: other 92 % of control | dose: 100.0 mg/kg/injection, schedule: Q04DX003 (ip), vehicle: other 104 % of control | dose: 200.0 mg/kg/injection, schedule: Q01DX009 (ip), vehicle: other 94 % of control | dose: 200.0 mg/kg/injection, schedule: Q04DX003 (ip), vehicle: other 94 % of control | dose: 400.0 mg/kg/injection, schedule: Q01DX009 (ip), vehicle: other 101 % of control | dose: 400.0 mg/kg/injection, schedule: Q04DX003 (ip), vehicle: other 89 % of control

CC(=O)NCCCCCC(=O)O
inactive: [2] 97 % of control | [11] 105 % of control | dose: 50.0 mg/kg/injection, schedule: Q04DX003 (ip), vehicle: saline 102 % of control | [7] 98 % of control and 90 % of control | [12] 108 % of control | [13] 101 % of control and 88 % of control | [14] 103 % of control | [15] 97 % of control and 101 % of control | dose: 200.0 mg/kg/injection, schedule: Q01DX009 (ip), vehicle: saline 100 % of control | [16] 101 % of control and 90 % of control | [17] 104 % of control | [18] 101 % of control | dose: 400.0 mg/kg/injection, schedule: Q01DX009 (ip), vehicle: saline 100 % of control | [19] 95 % of control and 101 % of control | [20] 96 % of control | [21] 95 % of control

CSCc1ccc(N)cc1
inactive: [7] 105 % of control | [13] 103 % of control | [15] 112 % of control | [16] 92 % of control | [18] 101 % of control | [19] 98 % of control

COc1ccc(NC(=S)Nc2ccc(Cc3ccc(NC(=S)Nc4ccc(OC)cc4)cc3)cc2)cc1
inactive: [6] 101 % of control | dose: 200.0 mg/kg/injection, schedule: Q04DX002 (ip), vehicle: saline with Tween-80 95 % of control | dose: 400.0 mg/kg/injection, schedule: Q04DX002 (ip), vehicle: saline with Tween-80 88 % of control

Clc1nc2nc[nH]c2nc1Cl
inactive: dose: 25.0 mg/kg/injection, schedule: Q04DX003 (ip), vehicle: saline with Tween-80 98 % of control | dose: 50.0 mg/kg/injection, schedule: Q04DX003 (ip), vehicle: saline with Tween-80 104 % of control | [13] 92 % of control | [22] 86 % of control

S=c1[nH]c2cc3ccccc3cc2[nH]1
inactive: dose: 75.0 mg/kg/injection, schedule: Q01DX001 (ip), vehicle: saline 98 % of control | dose: 150.0 mg/kg/injection, schedule: Q01DX001 (ip), vehicle: saline 101 % of control | dose: 300.0 mg/kg/injection, schedule: Q01DX001 (ip), vehicle: saline 92 % of control

CC(NC(=O)CCN)C(=O)O (stereo not given)
inactive: dose: 25.0 mg/kg/injection, schedule: Q04DX002 (ip), vehicle: saline 96 % of control | dose: 50.0 mg/kg/injection, schedule: Q04DX002 (ip), vehicle: saline 89 % of control | dose: 100.0 mg/kg/injection, schedule: Q04DX002 (ip), vehicle: saline 102 % of control

O=c1[nH]c2cccnc2c(=O)n1O
inactive: dose: 175.0 mg/kg/injection, schedule: Q04DX003 (ip), vehicle: carboxymethylcellulose (CMC) 108 % of control | dose: 350.0 mg/kg/injection, schedule: Q04DX003 (ip), vehicle: carboxymethylcellulose (CMC) 92 % of control

CCCCOc1ccc(N)cn1
inactive: [2] 95 % of control | [11] 95 % of control | [12] 113 % of control | [14] 96 % of control

Oc1cc(O)c(CN(CCCl)CCCl)cc1CN(CCCl)CCCl
inactive: dose: 5.5 mg/kg/injection, schedule: Q01DX009 (ip), vehicle: saline 115 % of control | dose: 8.2 mg/kg/injection, schedule: Q01DX009 (ip), vehicle: saline 121 % of control | dose: 18.75 mg/kg/injection, schedule: Q01DX009 (ip), vehicle: saline 103 % of control | [1] 101 % of control | dose: 50.0 mg/kg/injection, schedule: Q01DX001 (ip), vehicle: carboxymethylcellulose (CMC) 115 % of control | [4] 94 % of control | dose: 100.0 mg/kg/injection, schedule: Q01DX001 (ip), vehicle: carboxymethylcellulose (CMC) 115 % of control | [14] 110 % of control | dose: 200.0 mg/kg/injection, schedule: Q01DX001 (ip), vehicle: carboxymethylcellulose (CMC) 108 % of control | [17] 92 % of control | dose: 400.0 mg/kg/injection, schedule: Q01DX001 (ip), vehicle: carboxymethylcellulose (CMC) 123 % of control | [20] 90 % of control | [21] 100 % of control

N#CC(C#N)=C1SCS1
inactive: dose: 6.25 mg/kg/injection, schedule: Q04DX002 (ip), vehicle: saline with Tween-80 103 % of control | dose: 12.5 mg/kg/injection, schedule: Q04DX002 (ip), vehicle: saline with Tween-80 111 % of control | [3] 114 % of control

COc1ccccc1NC(=O)C(C(C)=O)C(c1cccc([N+](=O)[O-])c1)C(C(C)=O)C(=O)Nc1ccccc1OC (stereo not given)
inactive: [8] 96 % of control | [9] 96 % of control | [10] 89 % of control

C[Si](C)(C)CCc1ccccc1
inactive: [22] 98 % of control | dose: 200.0 mg/kg/injection, schedule: Q04DX003 (ip), vehicle: saline with Tween-80 95 % of control | dose: 400.0 mg/kg/injection, schedule: Q04DX003 (ip), vehicle: saline with Tween-80 93 % of control

COc1ccccc1-n1c(O)c(N=Nc2ccc(Br)cc2)c(=O)n(-c2ccc(C)cc2)c1=S
inactive: dose: 100.0 mg/kg/injection, schedule: Q01DX001 (ip), vehicle: Klucel (hydroxypropylcellulose) (HPC) 109 % of control | dose: 200.0 mg/kg/injection, schedule: Q01DX001 (ip), vehicle: Klucel (hydroxypropylcellulose) (HPC) 102 % of control | dose: 400.0 mg/kg/injection, schedule: Q01DX001 (ip), vehicle: Klucel (hydroxypropylcellulose) (HPC) 102 % of control

Reference: PubChem BioAssay AID248 (DTP/NCI, 2004)
